Results taken from patent US20220389008A1, “4-QUINOLINONE ANTIBACTERIAL COMPOUNDS” (Janssen Sciences Ireland Unlimited Company, priority 2019, published 2022).
Where two headings read alike, the source gives them in different places.

Tests used:
[1] = test system: Mycobacterium tuberculosis strain H37Rv ΔctaE-ΔqcrCAB; test: microbe, parasite or virus in culture; type: cell-based; details: 240 h
[2] = test system: Mitochondrial toxicity (Glu/Gal); test: Mitochondrial toxicity (Glu/Gal) assay; type: cell-based; set-up: key to Score: “negative” means that in the test, it was found to have low mitotoxicity (and hence no mitotoxicity alerts); “positive” means that there were some mitotoxicity alerts; “inconclusive” means that no accurate conclusion could be drawn; details: for Score: mitotoxicity score; for Δ IC50,glu/IC50,gal: ratio glu/gal
Text: The compounds of the invention/examples may have advantages associated with in vitro potency, kill kinetics (i.e. bactericidal effect) in vitro, PK properties, food effect, safety/toxicity (including liver toxicity, coagulation, 5-LO oxygenase), metabolic stability, Ames II negativity, MNT negativity, aqueous based solubility (and ability to formulate) and/or cardiovascular effect e.g. on animals (e.g. anesthetized guinea pig). The data below that was generated/calculated may be obtained using standard methods/assays, for instance that are available in the literature or which may be performed by a supplier (e.g. Microsomal Stability Assay—Cyprotex, Mitochondrial toxicity (Glu/Gal) assay—Cyprotex, as well as literature CYP cocktail inhibition assays).

[3] = test system: rCaCh; test: CVS / cardio tox rCaCh; type: binding, rat
[4] = test system: rNaCh; test: CVS / cardio tox rNaCh; type: binding, rat; details: read-out: Cardio tox rNaCH (IC50)
[5] = target: hERG (Homo sapiens, UniProt Q12809); test: CVS / cardio tox hERG (DOF); type: binding; details: DOF; read-out: Cardio tox hERG(DOF) (IC50)
Sequence of hERG (Q12809 whole entry): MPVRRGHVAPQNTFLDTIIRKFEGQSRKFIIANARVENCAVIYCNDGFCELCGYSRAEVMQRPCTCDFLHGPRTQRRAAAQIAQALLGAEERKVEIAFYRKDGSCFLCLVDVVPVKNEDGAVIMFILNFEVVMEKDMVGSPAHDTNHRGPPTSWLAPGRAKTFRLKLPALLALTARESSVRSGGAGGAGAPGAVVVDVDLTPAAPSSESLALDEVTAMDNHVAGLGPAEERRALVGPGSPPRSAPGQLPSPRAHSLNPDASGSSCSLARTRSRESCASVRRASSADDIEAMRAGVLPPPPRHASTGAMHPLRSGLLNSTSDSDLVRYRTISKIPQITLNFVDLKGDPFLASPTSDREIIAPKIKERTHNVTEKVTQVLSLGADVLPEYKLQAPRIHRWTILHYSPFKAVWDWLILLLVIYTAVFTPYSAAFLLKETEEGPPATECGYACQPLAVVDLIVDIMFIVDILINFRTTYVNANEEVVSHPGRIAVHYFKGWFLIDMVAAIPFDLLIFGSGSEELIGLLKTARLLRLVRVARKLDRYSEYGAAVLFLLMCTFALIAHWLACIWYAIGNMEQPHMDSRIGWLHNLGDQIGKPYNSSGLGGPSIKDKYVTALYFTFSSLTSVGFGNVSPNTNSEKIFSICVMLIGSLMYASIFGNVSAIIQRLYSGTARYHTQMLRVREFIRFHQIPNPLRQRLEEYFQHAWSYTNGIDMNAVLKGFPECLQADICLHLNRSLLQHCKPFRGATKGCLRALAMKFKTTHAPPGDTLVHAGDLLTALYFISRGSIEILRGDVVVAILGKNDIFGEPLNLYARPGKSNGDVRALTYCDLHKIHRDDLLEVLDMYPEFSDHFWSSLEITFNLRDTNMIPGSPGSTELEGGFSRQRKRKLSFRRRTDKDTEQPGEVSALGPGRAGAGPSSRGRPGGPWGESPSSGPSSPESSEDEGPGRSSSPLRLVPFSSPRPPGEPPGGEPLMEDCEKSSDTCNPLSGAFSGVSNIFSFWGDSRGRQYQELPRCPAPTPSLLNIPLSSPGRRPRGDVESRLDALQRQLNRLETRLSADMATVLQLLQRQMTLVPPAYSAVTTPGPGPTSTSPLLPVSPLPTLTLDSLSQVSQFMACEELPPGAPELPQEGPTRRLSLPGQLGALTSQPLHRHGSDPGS

[6] = test system: Mycobacterium tuberculosis (strain H37Ra), cyt bd; details: Mtb H37Ra; for (i) % OCR after cyt bd inhibitor: test compound 10 μM added after Compound X 0.9 μM; for (ii) % OCR after cccp: test compound 10 μM after Compound X 0.9 μM, then CCCP 1 μM
[7] = galactose medium, read-out: IC50, gal
[8] = glucose medium, read-out: IC50, glu

| SMILES | IC50 [1] [µM] | IC50 [2, 7] [µM] | IC50 [2, 8] [µM] | Score [2] | Δ IC50,glu/IC50,gal [2] | Cardio tox rCaCh IC50 (µM) [3] | IC50 [4] [µM] | IC50 [5] [µM] | (i) % OCR after cyt bd inhibitor [6] | (ii) % OCR after cccp [6] |
| --- | --- | --- | --- | --- | --- | --- | --- | --- | --- | --- |
| Cc1c(-c2nc3ccc(-c4ccc(C(F)(F)F)cc4)cn3n2)[nH]c2ccccc2c1=O [Compound 4] | 1.25 | 50 | 50 | negative | [x]0 | > 10 | 2.3 | > 10 | 32.75% | 40.05% |
| Cc1c(-c2nc3ccc(C(F)(F)F)cn3n2)[nH]c2ccccc2c1=O [Compound 19] | – | 100 | 100 | negative | [x]0 | >10, >10, >10 | > 10 | > 10 | 99.4% | 100.5% |
| Cc1c(-c2cn3ccc(Oc4ccc(OC(F)(F)F)cc4)cc3n2)[nH]c2ccccc2c1=O [Compound 29] | – | 53.7 | 79.7 | negative | 1.5 | 3.3 | 2.3 | ~9.1 | 64.6% | 118.5% |
| Cc1c(Cc2nc3ccc(-c4ccc(OC(F)(F)F)cc4)cn3n2)[nH]c2ccccc2c1=O [Compound 67] | 10.3 | 0.39 | 30 | positive | [x]76.87 | – | – | – | 99.28% | 161.97% |
| COc1ccc2[nH]c(-c3nc4ccc(Br)cn4n3)c(C)c(=O)c2c1 [Compound 68] | > 100 | 100 | 100 | negative | [x]0 | – | – | – | 129.7% | 164.4% |
| Cc1c(-c2nc3ccc(-c4ccccc4)cn3n2)[nH]c2ccccc2c1=O [Compound 72] | 0.261 | 100 | 100 | negative | [x]0 | – | – | – | 99.84% | 169.69% |
| COc1cc2[nH]c(-c3nc4ccc(Br)cn4n3)c(C)c(=O)c2cc1OC [Compound 73] | > 100 | 100 | 100 | negative | [x]0 | – | – | – | 105.2% | 171.2% |
| Cc1c(-c2nc3ccc(Cl)cn3n2)[nH]c2ccccc2c1=O [Compound 74] | > 100 | 121 | 135 | negative | [x]l.ll | – | – | – | 86.4% | 173.3% |
| Cc1c(-c2nc3ccc(OCC(F)(F)F)cn3n2)[nH]c2ccccc2c1=O [Compound 77] | 1.85 | 200 | 200 | negative | [x]0 | – | – | – | 110.77% | 175.26% |
| COc1ccc2[nH]c(-c3nc4ccc(-c5ccc(OC(F)(F)F)cc5)cn4n3)c(C)c(=O)c2c1Cl [Compound 80] | > 25 | 50 | 50 | negative | [x]0 | – | – | – | 122.15% | 180.98% |
| Cc1c(-c2nc3ccc(-c4cnn(CC(F)(F)F)c4)cn3n2)[nH]c2ccccc2c1=O [Compound 81] | 16.7 | 200 | 200 | negative | [x]0 | – | – | – | 98.58% | 182.7% |
| Cc1nnc(-c2ccc3nc(-c4[nH]c5ccccc5c(=O)c4C)nn3c2)s1 [Compound 82] | > 5 | 50 | 50 | negative | [x]0 | – | – | – | 96.77% | 186.45% |
| Cc1cc(F)cc(-c2ccc3nc(-c4[nH]c5ccccc5c(=O)c4C)nn3c2)c1 [Compound 86] | 1.32 | 50 | 50 | negative | [x]0 | – | – | – | 32,57% | 39,44% |
| COc1cc(OC)cc(-c2ccc3nc(-c4[nH]c5ccccc5c(=O)c4C)nn3c2)c1 [Compound 87] | 0.548 | 5.16 | 6.2 | inconclusive | [x]1.21 | – | – | – | 33,23% | 38,98% |
| COc1ccc(-c2ccc3nc(-c4[nH]c5ccccc5c(=O)c4C)nn3c2)cc1 [Compound 90] | 1.49 | 200 | 200 | negative | [x]0 | – | – | – | 25,77% | 30,69% |
| Cc1cc(-c2ccc3nc(-c4[nH]c5ccccc5c(=O)c4C)nn3c2)ccc1F [Compound 110] | 3.78 | 200 | 200 | negative | [x]0 | – | – | – | 40,37% | 51,51% |
| Cc1ccc(-c2ccc3nc(-c4[nH]c5ccccc5c(=O)c4C)nn3c2)cc1F [Compound 124] | 1.69 | 200 | 200 | negative | [x]0 | – | – | – | 31,72% | 37,02% |
| COc1cc(F)cc(-c2ccc3nc(-c4[nH]c5ccccc5c(=O)c4C)nn3c2)c1 [Compound 125] | 0.664 | 200 | 200 | negative | [x]0 | – | – | – | 45,66% | 64,44% |
| Cc1c(-c2nc3ccc(-c4cc(F)cc(C(F)(F)F)c4)cn3n2)[nH]c2ccccc2c1=O [Compound 126] | 10.8 | 15.5 | 25 | inconclusive | [x]1.61 | – | – | – | 43,71% | 51,74% |
| Cc1c(-c2nc3ccc(-c4cccc(CC(F)(F)F)c4)cn3n2)[nH]c2ccccc2c1=O [Compound 127] | 3.23 | 15.8 | 18.1 | negative | [x]1.14 | – | – | – | 49,62% | 65,3% |
